Results taken from patent EP1149072B1, “SULFONAMIDE HYDROXAMATES” (F. HOFFMANN-LA ROCHE AG, priority 1998, dated 2000).

Columns and labels:
Type in all cases: biochemical
[1] = biological target: T1, Procollagen C-Proteinase (PCP) (Homo sapiens, UniProt P13497); assay: Inhibition of Procollagen C-Proteinase activity, Assay A (continuous fluorescence assay, synthetic peptide substrate); settings: Assay A from Ex. 21; 20 µM substrate, pH 7.5, 30°C
T1 construct: made in house; enzyme purified from culture fluid
T1 sequence (P13497 121-730 isoform P13497-2 limits assumed): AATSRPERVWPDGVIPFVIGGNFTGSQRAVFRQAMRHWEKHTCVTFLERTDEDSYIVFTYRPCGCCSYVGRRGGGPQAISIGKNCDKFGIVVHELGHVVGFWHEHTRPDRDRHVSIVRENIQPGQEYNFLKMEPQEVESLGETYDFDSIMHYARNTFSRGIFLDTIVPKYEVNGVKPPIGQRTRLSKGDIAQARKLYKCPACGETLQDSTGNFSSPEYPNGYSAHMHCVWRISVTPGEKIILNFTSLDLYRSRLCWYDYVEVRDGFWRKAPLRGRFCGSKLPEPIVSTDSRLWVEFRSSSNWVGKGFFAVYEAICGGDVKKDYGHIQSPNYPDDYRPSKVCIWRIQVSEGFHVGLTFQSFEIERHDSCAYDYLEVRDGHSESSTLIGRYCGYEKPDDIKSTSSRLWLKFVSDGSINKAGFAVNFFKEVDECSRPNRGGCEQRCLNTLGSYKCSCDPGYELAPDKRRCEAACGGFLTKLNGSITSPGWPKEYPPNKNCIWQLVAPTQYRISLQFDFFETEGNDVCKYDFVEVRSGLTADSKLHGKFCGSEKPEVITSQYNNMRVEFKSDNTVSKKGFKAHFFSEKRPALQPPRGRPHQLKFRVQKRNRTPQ
Method: Human Procollagen C-Proteinase (PCP, also known as Bone Morphogenetic Protein-1 or BMP-1) was cloned from a human fibroblast cDNA library (Stratagene, San Diego, CA). Cloning was performed by PCR based on the reported nucleotide sequence (Wozney, J.M., Rosen,V., Celeste, A.J., Mitsock, L.M., Whitters, M.J., Kriz, R.W., Hewick, R.M., and Wang, E.A. (1989) direct GenBank submission accession M22488, locus HUMBMP1) using Taq polymerase, the 5' primer […] […] […] (SEQ ID NO:1) (Oligo Therapeutics, Inc., Wilsonville, OR), and the 3' reverse strand primer […] TTGAGCTGGTG (SEQ ID NO:2) (Gibco) to yield the entire full-length nucleotide encoding the signal sequence, propeptide, catalytic domain, and all C-terminal domains to the natural translation termination site. The PCR product was purified by gel electrophoresis using the Wizard DNA Purification Kit (Promega, Madison, WI) and ligated directly into the mammalian expression vector pCR3.1 (Invitrogen, Carlsbad, CA) by the TA cloning method. Ligated product was used to transform E coli strain TOP10F' (Invitrogen, Carlsbad, CA) by a standard heat-shock method, and transformants were selected by restriction analysis of purified plasmid using the enzymes HindIII and BamHI. Transformants testing positive for the PCP insert were submitted for sequencing using the Perkin-Elmer / ABI system. Two clones were selected that, when combined, encoded the entire amino acid sequence identical to the one predicted by Wozney et al. The two clones were recombined by restriction using the enzymes BbrI, which cleaved at a naturally occurring internal site, and EcoRV, which cleaved at the junction of the insert and vector. The excised fragments were religated into EcoRV-treated pCR3.1. The resulting construct contained the entire coding sequence identical to that reported by Wozney et al. with the exception of two silent mutations in the signal sequence, G->A at both positions 39 and 45 counting from the translation initiation site (ATG). The completed plasmid construct was amplified in E. coli DH5a and purified using anion exchange chromatography (MaxiPrep columns from Qiagen (Valencia, CA) catalog #12162).
A column packed with Dyematrex Gel Green A (Millipore, Bedford, MA) was equilibrated against 50 mM HEPES, pH7.2, containing 6mM CaCl2 and 0.3M NaCl. After the HT1080 cell culture fluid was loaded, the column was washed with 10 column volumes of the equilibration buffer containing 1.0 M NaCl. PCP was eluted with 50 mM HEPES pH 7.2 containing 3 M NaCl, 2 M urea and 6 mM CaCl2. Eluate fractions were pooled and concentrated to 150-200 ml and dialyzed against 4.0 liters of 50 mM HEPES, 6 mM CaCl2, pH 7.2 overnight. The material was then centrifuged at 5,000 g for 15 minutes to remove precipitates. The PCP containing sample were stored at -20 °C until ready for further processing. The PCP containing sample was thawed and diluted with 50 mM HEPES pH 7.2 containing 6 mM CaCl2, if necessary to bring the NaCl concentration to 0.1-0.15 M. The pH was adjusted to 6.7 with 2 N HCl. The protein solution was filtered through a 0.45 µm filter to remove any precipitate. This preparation was then loaded onto a column packed with Q-Sepharose High Performance (Pharmacia, Piscataway, NJ) which had been equilibrated with 50mM HEPES pH 6.7 containing 6 mM CaCl2 and 0.15 M NaCl. The PCP was not retained in the column and was therefore in the flow through fractions. The PCP was concentrated to 1 mg/ml and used for screening.
Culture fluid from the drosophila cells was concentrated 8 fold and the pH adjusted to 7.1-7.2 if necessary. The culture fluid was centrifuged at 3000 g for 10 minutes and filtered through 0.45 µm filters. The culture fluid was then loaded onto columns packed with carboxy-sulfone packing material (J.T. Baker/Mallinckrodt, Phillipsburg, NJ) which had been equilibrated with 0.1 M NaCl, 50 mM HEPES, 6 mM CaCl2, pH 7.2. […]

collagenase-2 = biological target: T2, collagenase-2 (Homo sapiens, UniProt P22894); assay: Measurement of collagenase activity (hydrolysis of fluorogenic peptide MCA-Pro-Leu-Gly-Leu-DPA-Ala-Arg-NH2); settings: based on inhibitory data from Assay A of Ex. 21 and the Assay of Ex. 22
T2 construct: Human collagenase-2 and gelatinase B were isolated in active form from buffy coats; from tissue; host or cells: human buffy coats (blood leukocytes)
Method: (§1) The catalytic domain of human collagenase-1 was expressed as a fusion protein with ubiquitin in E. Coli as described in Gehring, E.R. et al., J. Biol. Chem., 270, 22507, (1995). After purification of the fusion protein, the collagenase-1 catalytic domain was released by treatment with 1mM of aminophenylmercuric acetate (APMA) for 1 hour at 37 °C and then purified by zinc chelate chromatography. Human collagenase-2 and gelatinase B were isolated in active form from buffy coats as described in Mookhtiar, K.A. et al., Biochemistry, 29, 10620, (1990). The propeptide and catalytic domain portion of human collagenase-3 was expressed in E. Coli as an N-terminal fusion protein with ubiquitin. After purification, the catalytic domain was released by treatment with 1 mM APMA for 1 hour at 37 ° C, and then purified by zinc chelate chromatography. Rat collagenase-3 was purified in active form from the culture media of uterine smooth muscle cells as described in Roswit, W.T. et al., Arch. Biochem. Biophys., 225, 285-295 (1983).
(§2) The collagenase-1, collagenase-2 and collagenase-3 inhibitory activity of compounds of this invention in vitro was determined based on the hydrolysis of MCA-Pro-Leu-Gly-Leu-DPA-Ala-Arg-NH2 (SEQ ID NO:8) (Bachem, Inc.) at 37°C as described in Knight, C.G., et al., FEBS Lett., 296(3): 263-266 (1992). The collagenase enzyme was diluted with assay buffer (50 mM Tricine pH 7.5, 200 mM NaCl, 10 mM CaCl2, and 0.005% Brij-35) containing […] of above substrate dissolved in DMSO. Compounds of the invention dissolved in DMSO or only DMSO (control samples) were added such that the final DMSO concentration in all assays was 2.5%. The fluorescence changes were monitored with a Perkin-Elmer LS-50B flourimeter using an excitation wavelength of 328 nm and an emission wavelength of 393 nm.

collagenase-1 = biological target: T3, collagenase-1 (Homo sapiens, UniProt P03956); assay: as above; settings: based on inhibitory data from Assay A of Ex. 21 and the Assay of Ex. 22
T3 construct: the collagenase-1 catalytic domain was released by treatment with 1mM of aminophenylmercuric acetate (APMA); ubiquitin (cleaved yes); made in house; host or cells: E. coli
T3 sequence (P03956 100-269 limits assumed): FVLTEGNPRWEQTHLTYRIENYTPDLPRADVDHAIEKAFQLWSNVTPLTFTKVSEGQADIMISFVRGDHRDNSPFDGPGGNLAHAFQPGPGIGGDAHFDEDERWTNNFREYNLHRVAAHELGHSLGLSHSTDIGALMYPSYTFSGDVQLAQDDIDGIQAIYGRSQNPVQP
Method: as §1, §2

collagenase-3 = biological target: T4, collagenase-3 (Homo sapiens, UniProt P45452); assay: as above; settings: based on inhibitory data from Assay A of Ex. 21 and the Assay of Ex. 22
T4 construct: After purification, the catalytic domain was released by treatment with 1 mM APMA for 1 hour; ubiquitin (N, cleaved yes); made in house; host or cells: E. coli
Method: as §1, §2

T2 sequence (P22894 101-467): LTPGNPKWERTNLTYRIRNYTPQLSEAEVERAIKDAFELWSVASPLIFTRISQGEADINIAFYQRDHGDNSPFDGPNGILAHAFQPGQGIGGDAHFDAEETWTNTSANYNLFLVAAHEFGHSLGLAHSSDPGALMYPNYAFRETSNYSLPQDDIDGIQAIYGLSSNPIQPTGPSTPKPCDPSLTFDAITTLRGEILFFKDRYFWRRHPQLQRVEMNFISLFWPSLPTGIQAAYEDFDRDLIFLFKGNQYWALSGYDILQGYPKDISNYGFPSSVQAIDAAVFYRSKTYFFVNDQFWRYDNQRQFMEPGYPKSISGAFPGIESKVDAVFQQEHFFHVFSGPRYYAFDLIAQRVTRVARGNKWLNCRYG

Row | SMILES | IC50 [1] [µM] | Selectivity for PCP/Col-2 (collagenase-2) | Selectivity for PCP/Col-1 (collagenase-1) | Selectivity for PCP/Col-3 (collagenase-3)
1 | COc1cc(C)c(S(=O)(=O)N(Cc2ccc3c(c2)OCO3)[C@H](CO)C(=O)NO)c(C)c1C [Cmpd 5, N-hydroxy-2(R)-[(3,4-methylenedioxybenzyl)-(4-methoxy-2,3,6-trimethylbenzenesulfonyl)amino)-3-hydroxypropionamide] | 0.073 | 123.3 | 520.5 | 
2 | COc1cc(C)c(S(=O)(=O)N(Cc2ccc3c(c2)OCO3)[C@@H](C(=O)NO)C(C)C)c(C)c1C [Cmpd 12, N-hydroxy-2(R)-[(3,4-methylenedioxybenzyl)-(4-methoxy-2,3,6-trimethylbenzenesulfonyl)amino]-3-methylbutyramide] | 0.069 | 23.2 | 89.9 | 14.5
3 | COc1cc(C)c(S(=O)(=O)N(Cc2ccc3[nH]ccc3c2)[C@H](COC(C)(C)C)C(=O)NO)c(C)c1C [Cmpd 15, N-Hydroxy-2(R)-[(4-methoxy-2,5,6-trimethylbenzenesulfonyl)-(1H-indol-5-ylmethyl)amino]-3-tert-butoxypropionamide] | 0.066 | 454.5 | 515.1 | 

Second part, the compound after the results:

Row | IC50 [1] [µM] | Selectivity for PCP/Col-2 (collagenase-2) | Selectivity for PCP/Col-1 (collagenase-1) | Selectivity for PCP/Col-3 (collagenase-3) | SMILES
4 | 0.068 | 55.9 | 367.6 |  | COc1cc(C)c(S(=O)(=O)N(Cc2ccc3c(c2)OCO3)[C@@H](C(=O)NO)C(C)C)c(C)c1 [Cmpd 40, N-hydroxy-2(R)-2-[(3,4-methylenedioxybenzyl)-(4-methoxy-2,6-dimethylbenzene-sulfanyl)amino]-3-methylbutyramide]
5 | 0.04 | 250.0 | 1775.0 | 1950.0 | COc1cc(C)c(S(=O)(=O)N(Cc2ccc3[nH]cnc3c2)[C@@H](C(=O)NO)C(C)C)c(C)c1C [Cmpd 82]
6 | 0.026 |  |  |  | COc1cc(C)c(S(=O)(=O)N(Cc2ccc3[nH]cc(C(C)=O)c3c2)[C@@H](C(=O)NO)C(C)C)c(C)c1C [Cmpd 126, N-hydroxy-2(R)-[(1H-3-acetyl-indol-5-ylmethyl)-(4-methoxy-2,3,6-trimethylbenzenesulfonyl)amino]-3-methylbutyramide]
7 | 0.03 |  |  |  | COc1cc(C)c(S(=O)(=O)N(Cc2ccc3c(c2)OCO3)[C@H](CNS(C)(=O)=O)C(=O)NO)c(C)c1 [Cmpd 128, N-hydroxy-2(R)-[(3,4-methylendioxybenzyl)-(2,6-dimethyl-4-methoxybenzenesulfonyl)amino]-3-(methanesulfonyl)amino-propionamide]
8 | 0.11 | 136.4 | 400.0 |  | COc1cc(C)c(S(=O)(=O)N(Cc2ccc3[nH]ccc3c2)[C@@H](C(=O)NO)C(C)C)cc1C [Cmpd 145, N-hydroxy-2(R)-2-[(1H-indol-5-ylmethyl)-(4-methoxy-2,5-dimethylbenzenesulfonyl)-amino]-3-methylbutyramide]
